Where two headings read alike, the source gives them in different places. Each block holds one compound with its values, some of them ahead of it.
Legend:
Hep G2 (2.2.15)-Zellen = experiment: DNA synthesis of Hep G2 (2.2.15) cells (acid-insoluble radioactivity after 3H-thymidine or 3H-deoxyadenosine); type: cell-based, menschlichen; settings: 4 days, then 24 h label, mean ± SD of five experiments
Procedure: (§1) Die Testung der antiviralen Wirksamkeit der Nucleoside auf zelluärer Ebene erfolgte an einer menschlichen Hepatoblastom-Zellinie, die mit dem HBV-Genom tranfiziert wurde und sowohl das Oberflächenantigen des Virus (HBsAg) als auch die HBV-DNA permanent produziert und infektiöse Viruspartikel in das Medium abgibt (Hep G2-Zellen, Klon 2.2.15, Sells et al. Proc.Natl.Acad. Sci. 84, 1005 (1987)). Die Zellen (5x10⁵/ml) wurden in RPMI 1640-Medium mit 2 mM Glutamin und 10% fetalem Kälberserum allein oder zusammen mit den Nucleosid-Analoga für 4 Tage inkubiert, danach wurden den Ansätzen für 24 Stunden ³H-Thymidin bzw. ³H-Desoxyadenosin (3 µCi/ml) zugesetzt, die Zellen abzentrifugiert und darin die säureunlösliche Radioaktivität und damit der Einfluß auf die DNA-Synthese bestimmt. Im Inkubationsmedium wurde das HBsAg durch Festphasenradioimmunoassay (Travenol-Genentech Diagnostics, Cambridge, MA) entsprechend den Instruktionen des Herstellers ermittelt. Die Tabelle 4 faßt die Ergebnisse zusammen, die belegen, daß die getesteten Verbindungen hochwirksame und selektive Hemmstoffe der HBV-Vermehrung sind.

[1] = tested on: HBsAg-Sekretion von Hep G2 (2.2.15)-Zellen; experiment: Inhibition of HBsAg secretion of Hep G2 (2.2.15) cells (solid-phase radioimmunoassay of the medium); type: cell-based, HBV
Procedure: as §1

HBV-Polymerase = biological target: T1, HBV-Polymerase (Hepatitis B virus genotype D subtype ayw, UniProt P03156); experiment: Inhibition of HBV polymerase activity by nucleoside triphosphate analogues (method of Kaplan et al.); type: biochemical
T1 construct: Es wurde zunächst die Hemmbarkeit der HBV-assoziierten Polymerase; host or cells: virus-associated endogenous polymerase
T1 sequence (P03156 whole entry): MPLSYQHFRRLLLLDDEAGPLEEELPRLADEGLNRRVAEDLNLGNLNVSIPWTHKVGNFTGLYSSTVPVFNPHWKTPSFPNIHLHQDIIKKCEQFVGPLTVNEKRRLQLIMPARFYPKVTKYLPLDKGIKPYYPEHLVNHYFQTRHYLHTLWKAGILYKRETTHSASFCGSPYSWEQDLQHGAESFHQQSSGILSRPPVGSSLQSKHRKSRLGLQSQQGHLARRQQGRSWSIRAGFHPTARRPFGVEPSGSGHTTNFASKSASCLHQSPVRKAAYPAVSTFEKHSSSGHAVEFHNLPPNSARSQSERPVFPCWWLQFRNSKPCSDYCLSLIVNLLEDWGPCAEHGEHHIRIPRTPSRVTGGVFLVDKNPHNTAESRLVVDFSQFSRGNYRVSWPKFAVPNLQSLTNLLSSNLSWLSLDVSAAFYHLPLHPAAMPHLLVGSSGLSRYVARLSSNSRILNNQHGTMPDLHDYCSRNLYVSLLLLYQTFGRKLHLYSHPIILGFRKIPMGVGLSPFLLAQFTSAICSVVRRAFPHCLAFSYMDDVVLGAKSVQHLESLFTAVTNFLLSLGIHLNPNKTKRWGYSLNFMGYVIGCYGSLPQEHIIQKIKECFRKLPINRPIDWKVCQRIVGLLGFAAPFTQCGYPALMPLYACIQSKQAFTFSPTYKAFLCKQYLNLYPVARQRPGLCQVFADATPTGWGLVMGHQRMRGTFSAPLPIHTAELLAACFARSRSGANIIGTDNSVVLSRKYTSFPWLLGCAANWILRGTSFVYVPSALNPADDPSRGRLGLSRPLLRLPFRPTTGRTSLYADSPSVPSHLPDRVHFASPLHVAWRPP
Text: Das Hepatitis B Virus (HBV) besitzt eine zirkuläre, partiell doppelsträngige DNA, welche nach Infektion einer Leberzelle durch eine viruseigene Polymerase repliziert wird. Dieser Vorgang setzt jedoch die Synthese einer RNA durch eine zelluläre RNA-Polymerase voraus. Nur diese RNA-Matrize - im Zusammenhang mit der Replikation auch als Prägenom bezeichnet - kann von der HBV-Polymerase für die Synthese zunächst eines RNA-DNA Hybrids und dann der doppelsträngigen DNA benutzt werden. Damit verfügt die HBV-Polymerase über eine enzymatische Aktivität, die der einer reversen Transcriptase ähnelt (Will et al., J.Virology 61, 904 (1987)). Es wurde zunächst die Hemmbarkeit der HBV-assoziierten Polymerase durch die 5′-Triphosphate der erfindungsgemäßen Verbindungen untersucht. Dazu wurde die von Kaplan et al. (J.Virology 12, 995 (1973)) angegebene Methode zur Bestimmung der HBV-Polymerase benutzt, wobei die zu testenden Triphosphate den Ansätzen in verschiedenen Konzentrationen zugesetzt wurden. Die Hemmung der Enzymreaktion wurde nach 3-stündiger Inkubation bei 37 °C durch Vergleich mit einem Kontrollwert ermittelt und daraus die Konzentration der zugesetzten Analoga bestimmt, die zu einer 50 %igen Hemmung der HBV-Polymerase-Aktivität führt (ID₅₀). Tabelle 1 zeigt die Ergebnisse, wobei insbesondere 2′,3′-Didesoxy-3′-fluor-5-methylcytidin durch einen Wert ID₅₀ von 0,03 µM herausragt und damit zu den stärksten bisher bekannten Hemmstoffen der HBV-Polymerase zu rechnen ist. Tabelle 1

[2] = nucleoside 0,01 µM, 4 days + 24 h, mean ± SD of five experiments
[3] = nucleoside 0,1 µM, 4 days + 24 h, mean ± SD of five experiments
[4] = nucleoside 0,01 µM, % of control without nucleoside (100)
[5] = nucleoside 0,1 µM, % of control without nucleoside (100)
[6] = nucleoside 0,03 µM, 4 days + 24 h, mean ± SD of five experiments
[7] = nucleoside 0,3 µM, 4 days + 24 h, mean ± SD of five experiments
[8] = nucleoside 0,03 µM, % of control without nucleoside (100)
[9] = nucleoside 0,3 µM, % of control without nucleoside (100)
[10] = nucleoside 0,003 µM, 4 days + 24 h, mean ± SD of five experiments
[11] = nucleoside 0,003 µM, % of control without nucleoside (100)
[12] = nucleoside 1,0 µM, 4 days + 24 h, mean ± SD of five experiments
[13] = nucleoside 1,0 µM, % of control without nucleoside (100)
[14] = nucleoside 3,0 µM, 4 days + 24 h, mean ± SD of five experiments
[15] = nucleoside 3,0 µM, % of control without nucleoside (100)

Structure (SMILES): Nc1ccn([C@H]2C=C[C@@H](CO)O2)c(=O)n1 [2',3'-Didehydro-2',3'-didesoxycytidin]
- ^3H-DNA (Hep G2 (2.2.15)-Zellen; nucleoside 0,01 µM): 18410 ± 1895 dpm/Kultur
- ^3H-DNA (Hep G2 (2.2.15)-Zellen; nucleoside 0,1 µM): 19930 ± 1830 dpm/Kultur
- ^3H-DNA (Hep G2 (2.2.15)-Zellen; nucleoside 0,03 µM): 15685 ± 1740 dpm/Kultur
- ^3H-DNA (Hep G2 (2.2.15)-Zellen; nucleoside 0,3 µM): 14270 ± 1655 dpm/Kultur
- ^3H-DNA (Hep G2 (2.2.15)-Zellen; nucleoside 0,003 µM): 17940 ± 1865 dpm/Kultur
- ^3H-DNA (Hep G2 (2.2.15)-Zellen; nucleoside 1,0 µM): 12350 ± 1310 dpm/Kultur
- ^3H-DNA (Hep G2 (2.2.15)-Zellen; nucleoside 3,0 µM): 6535 ± 790 dpm/Kultur
- HBsAg [1, 2]: 12,1 ± 1,6 ng/ml
- HBsAg [1, 3]: 0,8 ± 0,2 ng/ml
- HBsAg [1, 4]: 69%
- HBsAg [1, 5]: 5%
- HBsAg [1, 6]: 5,8 ± 1,2 ng/ml
- HBsAg [1, 7]: 0,4 ± 0,2 ng/ml
- HBsAg [1, 8]: 33%
- HBsAg [1, 9]: 2%
- HBsAg [1, 10]: 18,7 ± 2,8 ng/ml
- HBsAg [1, 11]: 107%
- HBsAg [1, 12]: < 0,1 ng/ml
- HBsAg [1, 13]: < 1%
- HBsAg [1, 14]: < 0,1 ng/ml
- HBsAg [1, 15]: < 1%

Structure (SMILES): Nc1nc(N)c2ncn([C@H]3C[C@H](F)[C@@H](CO)O3)c2n1 [2',3'-Didesoxy-3'-fluor-2,6-diaminopurinribosid]
- ^3H-DNA (Hep G2 (2.2.15)-Zellen; nucleoside 0,01 µM): 16820 ± 1775 dpm/Kultur
- ^3H-DNA (Hep G2 (2.2.15)-Zellen; nucleoside 0,1 µM): 19990 ± 1820 dpm/Kultur
- ^3H-DNA (Hep G2 (2.2.15)-Zellen; nucleoside 0,03 µM): 17265 ± 1895 dpm/Kultur
- ^3H-DNA (Hep G2 (2.2.15)-Zellen; nucleoside 0,3 µM): 15125 ± 1795 dpm/Kultur
- ^3H-DNA (Hep G2 (2.2.15)-Zellen; nucleoside 0,003 µM): 19535 ± 1835 dpm/Kultur
- ^3H-DNA (Hep G2 (2.2.15)-Zellen; nucleoside 1,0 µM): 18885 ± 1950 dpm/Kultur
- ^3H-DNA (Hep G2 (2.2.15)-Zellen; nucleoside 3,0 µM): 17740 ± 1670 dpm/Kultur
- HBsAg [1, 2]: 3,2 ± 0,6 ng/ml
- HBsAg [1, 3]: < 0,1 ng/ml
- HBsAg [1, 4]: 18%
- HBsAg [1, 5]: < 1%
- HBsAg [1, 6]: 2,0 ± 0,5 ng/ml
- HBsAg [1, 7]: < 0,1 ng/ml
- HBsAg [1, 8]: 11%
- HBsAg [1, 9]: < 1%
- HBsAg [1, 10]: 15,9 ± 2,7 ng/ml
- HBsAg [1, 11]: 91%
- HBsAg [1, 12]: < 0,1 ng/ml
- HBsAg [1, 13]: < 1%
- HBsAg [1, 14]: < 0,1 ng/ml
- HBsAg [1, 15]: < 1%

Structure (SMILES): CCc1cn([C@H]2C[C@H](F)[C@@H](CO)O2)c(=O)nc1N [2',3'-Didesoxy-3'-fluor-5-ethylcytidin]
- ^3H-DNA (Hep G2 (2.2.15)-Zellen; nucleoside 0,01 µM): 13855 ± 1945 dpm/Kultur
- ^3H-DNA (Hep G2 (2.2.15)-Zellen; nucleoside 0,1 µM): 15245 ± 1655 dpm/Kultur
- ^3H-DNA (Hep G2 (2.2.15)-Zellen; nucleoside 0,03 µM): 14570 ± 1695 dpm/Kultur
- ^3H-DNA (Hep G2 (2.2.15)-Zellen; nucleoside 0,3 µM): 14130 ± 1940 dpm/Kultur
- ^3H-DNA (Hep G2 (2.2.15)-Zellen; nucleoside 0,003 µM): 14020 ± 1780 dpm/Kultur
- ^3H-DNA (Hep G2 (2.2.15)-Zellen; nucleoside 1,0 µM): 9850 ± 1230 dpm/Kultur
- ^3H-DNA (Hep G2 (2.2.15)-Zellen; nucleoside 3,0 µM): 6640 ± 965 dpm/Kultur
- HBsAg [1, 2]: 8,2 ± 0,8 ng/ml
- HBsAg [1, 3]: 0,6 ± 0,1 ng/ml
- HBsAg [1, 4]: 42%
- HBsAg [1, 5]: 3%
- HBsAg [1, 6]: 2,6 ± 0,6 ng/ml
- HBsAg [1, 7]: < 0,1 ng/ml
- HBsAg [1, 8]: 13%
- HBsAg [1, 9]: < 1%
- HBsAg [1, 10]: 16,7 ± 2,6 ng/ml
- HBsAg [1, 11]: 87%
- HBsAg [1, 12]: < 0,1 ng/ml
- HBsAg [1, 13]: < 1%
- HBsAg [1, 14]: < 0,1 ng/ml
- HBsAg [1, 15]: < 1%

- IC50 (HBV-Polymerase; 50 % inhibition of HBV polymerase activity, 3 h incubation at 37 °C, read-out: ID₅₀): 4000 nM
Structure (SMILES): Nc1nc2c(ncn2[C@H]2C[C@H](N)[C@@H](COP(=O)(O)OP(=O)(O)OP(=O)(O)O)O2)c(=O)[nH]1 [2′,3′-Didesoxy-3′-aminoguanosin-5′-triphosphat]

Structure (SMILES): Nc1ncc2ncn([C@H]3C[C@H](F)[C@@H](COP(=O)(O)OP(=O)(O)OP(=O)(O)O)O3)c2n1 [2′,3′-Didesoxy-3′-fluor-2-aminopurinribosid-5′-triphosphat]
- IC50 (HBV-Polymerase): 600 nM

Structure (SMILES): Nc1nc2c(ncn2[C@H]2C[C@H](F)[C@@H](COP(=O)(O)OP(=O)(O)OP(=O)(O)O)O2)c(=S)[nH]1 [2′,3′-Didesoxy-3′-fluor-6-thioguanosin-5′-triphosphat]
- IC50 (HBV-Polymerase): 500 nM

Structure (SMILES): Cc1cn([C@@H]2O[C@H](CO)[C@@H](O)[C@@H]2O)c(=O)nc1N [Arabinosyl-5-methyl-cytosin, 1-β-D-Arabinofuranosyl-5-methylcytosin]
- ^3H-DNA (Hep G2 (2.2.15)-Zellen; nucleoside 0,01 µM): 17990 ± 1635 dpm/Kultur
- ^3H-DNA (Hep G2 (2.2.15)-Zellen; nucleoside 0,1 µM): 16225 ± 1825 dpm/Kultur
- ^3H-DNA (Hep G2 (2.2.15)-Zellen; nucleoside 0,03 µM): 19075 ± 1905 dpm/Kultur
- ^3H-DNA (Hep G2 (2.2.15)-Zellen; nucleoside 0,3 µM): 18600 ± 1865 dpm/Kultur
- ^3H-DNA (Hep G2 (2.2.15)-Zellen; nucleoside 0,003 µM): 17755 ± 1750 dpm/Kultur
- ^3H-DNA (Hep G2 (2.2.15)-Zellen; nucleoside 1,0 µM): 12415 ± 1070 dpm/Kultur
- ^3H-DNA (Hep G2 (2.2.15)-Zellen; nucleoside 3,0 µM): 8470 ± 935 dpm/Kultur
- HBsAg [1, 2]: 12,4 ± 1,2 ng/ml
- HBsAg [1, 3]: 3,6 ± 0,5 ng/ml
- HBsAg [1, 4]: 71%
- HBsAg [1, 5]: 21%
- HBsAg [1, 6]: 10,3 ± 1,2 ng/ml
- HBsAg [1, 7]: 0,6 ± 0,3 ng/ml
- HBsAg [1, 8]: 59%
- HBsAg [1, 9]: 3%
- HBsAg [1, 10]: 16,8 ± 1,7 ng/ml
- HBsAg [1, 11]: 96%
- HBsAg [1, 12]: < 0,1 ng/ml
- HBsAg [1, 13]: < 1%
- HBsAg [1, 14]: < 0,1 ng/ml
- HBsAg [1, 15]: < 1%

Source: EP0409227A2, “Pyrimidine nucleosides, their preparation and pharmaceutical preparations” (MATTHES, Eckart, Dr., priority 1989, dated 1991)
